Like-named read-outs stand apart in the source and are kept apart here.
Legend:
[1] = Stability of analyte in stored plasma samples (bioanalytical validation); type: in vitro ADME, human; conditions: about -20° C. and about −70° C.
Procedure: Bioanalytical methods: plasma samples are analyzed at Q2 Solutions (Ithaca, NY). The samples are analyzed for the GGG tri-receptor agonist using a validated liquid chromatography high resolution mass spectrometry method. The lower limit of quantification is 1.00 ng/mL and the upper limit of quantification is 500.00 ng/ml. Samples above a limit of quantification are diluted and reanalyzed to yield results within the calibrated range. The intra-assay accuracy (% relative error) during validation ranges from −6.3% to 15.7%. The intra-assay precision (% relative standard deviation) during validation is ≤14.7%. The GGG tri-receptor agonist is stable for up to 96 days when stored at about-20° C. and about −70° C.

[2] = MAD study in individuals with diabetes: plasma pharmacokinetics; type: in vivo, human; conditions: for AUC(0-inf) / Cmax / Tmax / half-life / CL/F: both sexes, human, plasma
Text: Studies are designed to evaluate the safety, tolerability, PD and PK of the GGG tri-receptor agonist (SEQ ID NO:1) in individuals with diabetes. The MAD study is a randomized, investigator- and participant-blind, placebo-controlled, multiple-ascending dose, single-site study conducted in individuals with diabetes (i.e., females or males aged 20-70 years, inclusive, with T2DM for at least 3 months and HbA1c at lead-in and screening of ≥7.0% and ≤10.5% and treated with diet and exercise alone or a stable dose of metformin for at least 3 months prior to screening, with stable body weight for 3 months prior to randomization and with a BMI of 23-50 kg/m^2 at screening).
Dose escalation of the GGG tri-receptor agonist is assessed over 12 weeks in cohorts with a starting dose of 0.5 mg. One cohort of 13 individuals is administered 0.5 mg for 12 weeks. A second cohort of 13 individuals is administered 1.5 mg for 12 weeks. A third cohort of 15 individuals is administered 3.0 mg for 12 weeks. A fourth cohort of 15 individuals is administered 3.0 mg for 4 weeks and then administered 6.0 mg for 8 weeks. A fifth cohort of 16 individuals is administered 3.0 mg for 2 weeks, administered 6.0 mg for 2 weeks, administered 9.0 mg for 4 weeks, and then administered 12 mg for 4 weeks. Alternate dose increment steps may be introduced based on emerging safety and tolerability data from the preceding cohorts, and the dose increment steps can be reduced. As a non-limiting example, in Cohort 4, escalation from starting dose of 3 mg may occur via a step-through dose of 4.5 mg before attaining 6 mg, in Cohort 5, escalation from starting dose of 3 to 12 mg may occur via an additional step through dose level of 4.5 mg, prior to the planned doses 6 and 9 mg. In addition to these proposed alternate regimens in Cohort 4 and Cohort 5, planned dose for escalation between cohorts and within cohorts may be further reduced if warranted by safety or tolerability data.
Blood samples are collected on Day 1 at pre-dose and at 12 hr, 24 hr, 48 hr (Day 2) and 72 hr post-dose, as well as at pre-dose on Days 7, 14 and 21, to determine plasma concentration of the GGG tri-receptor agonist. Blood samples also are collected on Day 29 at pre-dose and at 12 hr, 24 hr, 48 hr and 72 hr post-dose, as well as at pre-dose on Days 36, 43 and 50, to determine plasma concentration of the GGG tri-receptor agonist. Blood samples also are collected on Day 57 at pre-dose and at 12 hr, 24 hr, 48 hr and 72 hr post-dose, as well as at pre-dose on Days 64 and 71, to determine plasma concentration of the GGG tri-receptor agonist. Blood samples also are collected on Day 78 at pre-dose and at 12 hr, 24 hr, 48 hr and 72 hr post-dose, as well as at pre-dose on Day 85, to determine plasma concentration of the GGG tri-receptor agonist. Human plasma samples from individuals administered the GGG tri-receptor agonist are analyzed at Q2 Solutions (Ithaca, NY). Concentrations of the GGG tri-receptor agonist are assayed using a validated liquid chromatography high resolution mass spectrometry method, where the lower limits of quantification are 1 ng/ml or 3 ng/ml and the upper limit of quantification is 500 ng/mL.
Blood samples are likewise collected at Weeks 14 and 16 for PK analysis. As above, plasma concentrations are used to compute PK parameters using standard non-compartmental methods in a validated software program (Phoenix WinNonlin Version 8.1).

[3] = 12 mg, 3.0, 6.0, 9.0, 12.0 mg QW, Day 1
[4] = 12 mg, 3.0, 6.0, 9.0, 12.0 mg QW, Day 29
[5] = 12 mg, 3.0, 6.0, 9.0, 12.0 mg QW, Day 57
[6] = 12 mg, 3.0, 6.0, 9.0, 12.0 mg QW, Day 78

Compound: CC[C@H](C)[C@H](NC(=O)[C@H](Cc1ccccc1)NC(=O)[C@H](C)NC(=O)C(C)(C)NC(=O)[C@H](CCC(N)=O)NC(=O)[C@H](C)NC(=O)[C@H](CCCCNC(=O)COCCOCCNC(=O)CC[C@H](NC(=O)CCCCCCCCCCCCCCCCCCC(=O)O)C(=O)O)NC(=O)[C@H](CCCCN)NC(=O)[C@H](CC(=O)O)NC(=O)[C@H](CC(C)C)NC(=O)[C@](C)(CC(C)C)NC(=O)[C@@H](NC(=O)[C@H](CO)NC(=O)[C@H](Cc1ccc(O)cc1)NC(=O)[C@H](CC(=O)O)NC(=O)[C@H](CO)NC(=O)[C@@H](NC(=O)[C@H](Cc1ccccc1)NC(=O)[C@@H](NC(=O)CNC(=O)[C@H](CCC(N)=O)NC(=O)C(C)(C)NC(=O)[C@@H](N)Cc1ccc(O)cc1)[C@@H](C)O)[C@@H](C)O)[C@@H](C)CC)C(=O)N[C@@H](CCC(=O)O)C(=O)N[C@@H](Cc1ccc(O)cc1)C(=O)N[C@@H](CC(C)C)C(=O)N[C@@H](CC(C)C)C(=O)N[C@@H](CCC(=O)O)C(=O)NCC(=O)NCC(=O)N1CCC[C@H]1C(=O)N[C@@H](CO)C(=O)N[C@@H](CO)C(=O)NCC(=O)N[C@@H](C)C(=O)N1CCC[C@H]1C(=O)N1CCC[C@H]1C(=O)N1CCC[C@H]1C(=O)N[C@@H](CO)C(N)=O [GGG tri-receptor agonist, Y-Aib-QGTFTSDYSI-αMeL-LDKK((2-[2-(2-amino-ethoxy)-ethoxy]-acetyl)-(γGlu)-CO-(CH2)18-CO2H)AQ-Aib-AFIEYLLEGGPSSGAPPPS-NH2]
- stability when stored [1]: up to 96 days
- AUC (0-τ) and Cmax dose proportionality ([2]; 3.0, 6.0 and 12.0 mg, Week 12): increase in a dose-proportional manner
- AUC(0-inf) ([2]; 0.5 mg, 0.5 mg QW, Day 1): 7180 ng·h/mL
- Cmax ([2]; 0.5 mg, 0.5 mg QW, Day 1): 54.1 ng/mL
- Tmax ([2]; 0.5 mg, 0.5 mg QW, Day 1): 48 h
- AUC(0-inf) ([2]; 0.5 mg, 0.5 mg QW, Day 29): 14400 ng·h/mL
- Cmax ([2]; 0.5 mg, 0.5 mg QW, Day 29): 118 ng/mL
- Tmax ([2]; 0.5 mg, 0.5 mg QW, Day 29): 23.8 h
- AUC(0-inf) ([2]; 0.5 mg, 0.5 mg QW, Day 57): 11800 ng·h/mL
- Cmax ([2]; 0.5 mg, 0.5 mg QW, Day 57): 86.8 ng/mL
- Tmax ([2]; 0.5 mg, 0.5 mg QW, Day 57): 36 h
- AUC(0-inf) ([2]; 1.5 mg, 1.5 mg QW, Day 1): 22600 ng·h/mL
- Cmax ([2]; 1.5 mg, 1.5 mg QW, Day 1): 228 ng/mL
- Tmax ([2]; 1.5 mg, 1.5 mg QW, Day 1): 24 h
- AUC(0-inf) ([2]; 1.5 mg, 1.5 mg QW, Day 29): 35900 ng·h/mL
- Cmax ([2]; 1.5 mg, 1.5 mg QW, Day 29): 252 ng/mL
- Tmax ([2]; 1.5 mg, 1.5 mg QW, Day 29): 24 h
- AUC(0-inf) ([2]; 3 mg, 3.0 mg QW, Day 1): 33800 ng·h/mL
- Cmax ([2]; 3 mg, 3.0 mg QW, Day 1): 290 ng/mL
- Tmax ([2]; 3 mg, 3.0 mg QW, Day 1): 23.8 h
- AUC(0-inf) ([2]; 3 mg, 3.0 mg QW, Day 29): 68100 ng·h/mL
- Cmax ([2]; 3 mg, 3.0 mg QW, Day 29): 531 ng/mL
- Tmax ([2]; 3 mg, 3.0 mg QW, Day 29): 12.2 h
- AUC(0-inf) ([2]; 3 mg, 3.0 mg QW, Day 57): 66300 ng·h/mL
- Cmax ([2]; 3 mg, 3.0 mg QW, Day 57): 562 ng/mL
- Tmax ([2]; 3 mg, 3.0 mg QW, Day 57): 24 h
- AUC(0-inf) ([2]; 3 mg, 3.0 mg QW, Day 78): 70100 ng·h/mL
- Cmax ([2]; 3 mg, 3.0 mg QW, Day 78): 571 ng/mL
- Tmax ([2]; 3 mg, 3.0 mg QW, Day 78): 12.2 h
- half-life ([2]; 3 mg, 3.0 mg QW, Day 78, read-out: t½ (converted)): 137 h
- AUC(0-inf) ([2]; 6 mg, 3.0, 6.0 mg QW, Day 1): 34500 ng·h/mL
- Cmax ([2]; 6 mg, 3.0, 6.0 mg QW, Day 1): 292 ng/mL
- Tmax ([2]; 6 mg, 3.0, 6.0 mg QW, Day 1): 24 h
- AUC(0-inf) ([2]; 6 mg, 3.0, 6.0 mg QW, Day 29): 86400 ng·h/mL
- Cmax ([2]; 6 mg, 3.0, 6.0 mg QW, Day 29): 711 ng/mL
- Tmax ([2]; 6 mg, 3.0, 6.0 mg QW, Day 29): 12.1 h
- AUC(0-inf) ([2]; 6 mg, 3.0, 6.0 mg QW, Day 57): 136000 ng·h/mL
- Cmax ([2]; 6 mg, 3.0, 6.0 mg QW, Day 57): 1170 ng/mL
- Tmax ([2]; 6 mg, 3.0, 6.0 mg QW, Day 57): 24 h
- AUC(0-inf) ([2]; 6 mg, 3.0, 6.0 mg QW, Day 78): 137000 ng·h/mL
- Cmax ([2]; 6 mg, 3.0, 6.0 mg QW, Day 78): 1060 ng/mL
- Tmax ([2]; 6 mg, 3.0, 6.0 mg QW, Day 78): 24 h
- half-life ([2]; 6 mg, 3.0, 6.0 mg QW, Day 78, read-out: t½ (converted)): 135 h
- AUC(0-inf) [2, 3]: 31800 ng·h/mL
- Cmax [2, 3]: 265 ng/mL
- Tmax [2, 3]: 23.9 h
- AUC(0-inf) [2, 4]: 150000 ng·h/mL
- Cmax [2, 4]: 1320 ng/mL
- Tmax [2, 4]: 23.8 h
- AUC(0-inf) [2, 5]: 262000 ng·h/mL
- Cmax [2, 5]: 2070 ng/mL
- Tmax [2, 5]: 24 h
- AUC(0-inf) [2, 6]: 293000 ng·h/mL
- Cmax [2, 6]: 2410 ng/mL
- Tmax [2, 6]: 23.9 h
- half-life ([2]; 12 mg, 3.0, 6.0, 9.0, 12.0 mg QW, Day 78, read-out: t½ (converted)): 143 h
- Tmax ([2]; MAD study, after dosing): 12 to 72 h
- half-life ([2]; MAD study, read-out: mean half-life): ~144 h
- half-life ([2]; subcutaneous, across all dose levels, read-out: geometric mean t½): 135 to 143 h
- CL/F ([2]; 3.0 mg QW, Day 78): 0.713 mL/min
- CL/F ([2]; 3.0, 6.0 mg QW, Day 78): 0.728 mL/min
- CL/F ([2]; 3.0, 6.0, 9.0, 12.0 mg QW, Day 78): 0.683 mL/min
